From US9526766B2, “Potentiation of antibiotic treatment with a protein-lipid complex” (priority 2012, dated 2016)
Like-named read-outs stand apart in the source and are kept apart here.

Columns and labels:
[1] = system: S. aureus NRS70 (MRSA) nasopharyngeal colonization; test: Murine nasopharyngeal colonization model, intranasal treatment; type: in vivo, Staphylococcus aureus; conditions: for Colonization burden: mice colonized with NRS70 for 48 hours, methicillin single dose 100 μg (5,000 μg/ml) alone, ALAFAC alone at the same dose
Protocol: Methodology: Six-week-old female BALB/cByJ mice from Jackson Laboratories (Bar Harbor, Me., U.S.A.) were maintained in filter-top cages on standard laboratory chow and water ad libitum until use. Mice were colonized as described previously. In short, 20 μl of a bacterial suspension containing 5×10^6 CFUs of EF3030 pneumococci, 1×10^8 CFUs of SP670 pneumococci, or 5×10^7 NRS70 methicillin-resistant S. aureus in PBS were pipetted into the nares of non-anesthetized mice. After 48 hours, mice were treated with 20 μl gentamicin (0-5,000 μg/mL), 20 μl penicillin (0-5,000 μg/mL), or 20 μl of methicillin (0-5,000 μg/ml) in the presence or absence of 50 or 100 μg ALAFAC in the nares for 6 hours as a single dose. Colonization burden was then assessed after euthanizing the animals by enumerating viable bacteria from harvested nasopharyngeal tissue after the nasal wash. Nasopharyngeal tissue was dissected out as described by removing the upper skull bone, and harvesting the tissue present in the nasal conchae with forceps. Bacterial load was measured by determining viable plate counts from the homogenized tissue.
Mice were colonized as described. In short, 10 μl of a bacterial suspension containing 5×10^7 CFUs of NRS 70 staphylococci in PBS were pipetted into the nares of non-anesthetized mice. After 24 hours, mice were treated with 20 μl methicillin (0-100 μg or 0-5,000 μg/mL) in the presence or absence of 20 μl (100 μg) ALAFAC in the nares for 12 hours. Colonization burden was then assessed after euthanizing the animals by enumerating viable bacteria both in a nasopharyngeal lavage obtained by injecting 100 μL PBS in the trachea of mice and collecting it as it flowed out the nares, and from harvested nasopharyngeal tissue after the nasal wash. Nasopharyngeal tissue was dissected out as described by removing the upper skull bone, and harvesting the tissue present in the nasal conchae with forceps. Bacterial load was measured by determining viable plate counts from the nasal lavage or from homogenized tissue as described above.

[2] = system: Staphylococcus aureus; test: Bactericidal activity on planktonic cultures; type: cell-based; conditions: antibiotic alone
Protocol: Methodology: In late logarithmic growth phase, the bacteria were harvested by centrifugation at 12,000×g for 10 minutes and resuspended in phosphate-buffered saline (PBS; […], […], […], pH 7.4). Appropriate dilutions of the bacteria were suspended in PBS and treated with indicated concentrations of ALAFAC and/or antibiotics for various times. The effect on bacterial viability was assessed by plating serial dilutions of bacterial sample on tryptic soy agar plates containing 5% sheep blood (viable counts) and determining viable colony forming units after overnight growth at 37° C.

[3] = system: Streptococcus pneumoniae biofilms; test: Static biofilm model, viable counts; type: cell-based; conditions: for Biofilm killing: alone or combined; for Minimum antibiotic concentration for bactericidal (>3 log10) activity on biofilms: within 4-6 hours, antibiotic alone
Protocol: Methodology: Pneumococci were grown statically in CDM and S. aureus were grown in trypic soy medium to mid-logarithmic phase (OD600=0.5), washed, and resuspended in fresh pre-warmed medium to a density of 2×10^4 CFU in 500 μl volume, and suspensions were used to seed sterile round glass coverslips in the bottom of polystyrene 24-well plates with or without a substratum of confluent H292 epithelial cells. Biofilms were cultured at 34° C. in 5% CO2 for indicated times with change of culture media every 12 hours and to assess biomass and antibiotic resistance by viable counts (as described).
Biofilms were then washed in PBS and detached by scraping the surface in the presence of 100 μL PBS followed by a rinse with 100 μL PBS. Collected cells were sonicated in a sonication water bath for 2 s followed by vortexing twice for 20 seconds at high speed and the dispersed biofilm cells were used to determine viable CFUs per ml from diluted samples plated and grown on blood agar.
Static Biofilm Model. Pneumococci were grown in CDM to mid-logarithmic phase (OD600=0.5), washed, and resuspended in fresh pre-warmed medium to a density of 2×10^4 CFUs in 500 μl volume, and suspensions were used to seed sterile round glass coverslips in the bottom of polystyrene 24-well plates with a substratum of confluent H292 epithelial cells as described. Biofilms were cultured at 34° C. in 5% CO2 for indicated times with change of culture media every 12 hours and used for SEM studies or to assess biomass and antibiotic resistance by viable plate counts.
Biofilms were then washed in PBS, dispersed by sonication, and collected by pipetting in 100 μL PBS followed by a rinse with 100 μL PBS. Collected cells were then vortexed twice for 20 seconds at high speed and the dispersed biofilm cells were used to determine viable CFUs per ml from diluted samples plated and grown on blood agar. Results are reported as the total number of CFUs per biofilm.

[4] = system: Moraxella catarrhalis; test: MIC by broth microdilution, antibiotics with and without ALAFAC; type: cell-based; conditions: agent alone
Protocol: (§1) Methodology: Minimal inhibitory concentrations (MICs) were determined in 96-well microtiter plates using the microdilution method according to approved standards of the CLSI except that Todd-Hewitt medium supplemented with 0.5% yeast extract, which yields reproducible MIC results was used as the test medium for S. pneumoniae. For the remaining species Mueller-Hinton medium was used as indicated by the CLSI standard. Each well contained two-fold dilutions of antibiotic, was seeded with a final bacterial concentration of 10^5 CFU/mL, and was incubated for 18 h at 37° C. in a Synergy II microplate reader (Biotek, Winooski, Vt.) where the OD600 was recorded every 5 minutes to monitor bacterial growth. The MIC was defined as the lowest concentration of antimicrobial agent solution at which no increase in OD600 was detected.
(§2) In vitro susceptibility tests. Minimal inhibitory concentrations (MICs) were determined in 96-well microtiter plates using the microdilution method according to approved standards of the CLSI except that Todd-Hewitt medium supplemented with 0.5% yeast extract, which yields reproducible MIC results was used as the test medium for S. pneumoniae. MICs for A. baumanni, and M. catarrhalis were determined in MH media. Two-fold dilutions of a starting antibiotic concentration was added in triplicate into microtiter plate wells (in 96-well plates), were seeded with a final bacterial concentration of ˜10^5 colony forming units (CFU)/mL, and was incubated for 18 h in ambient air at 37° C. in a Synergy II microplate reader (Biotek, Winooski, Vt.) where the OD600 was recorded every 5 minutes to monitor bacterial growth. The MIC was defined as the lowest concentration of antimicrobial agent solution at which no increase in OD600 was detected.

[5] = system: Streptococcus pneumoniae; test: as above; type: cell-based
Protocol: as §1, §2

[6] = S. aureus NRS384, within 4-6 hours
[7] = D39 48 h biofilm (8.3 log10) on epithelial substratum, 250 μg/ml ALAFAC, 100 μg/ml penicillin
[8] = SP670 biofilm, ALAFAC 250 μg/mL, penicillin 100 μg/mL
[9] = EF3030 48 h biofilm (7.5 log), 100 μg/mL ALAFAC, 200 μg/ml gentamicin, 3 hours
[10] = S. pneumoniae EF3030, agent alone
[11] = S. pneumoniae in liquid culture

Molecule	Colonization burden [1]	Minimum antibiotic concentration for bactericidal (>3 log10) activity, planktonic [2, 6] [μg/ml]	Biofilm killing [3, 7]	Minimum antibiotic concentration for bactericidal (>3 log10) activity on biofilms ([3]; S. pneumoniae D39 biofilm) [μg/ml]	Biofilm killing [3, 8]	MIC ([4]; M. catarrhalis 7169 (MC7169)) [µg/mL]	MIC ([4]; M. catarrhalis BC8 (MCBC8)) [µg/mL]	Biofilm killing [3, 9]	MIC ([5]; S. pneumoniae D39, agent alone) [µg/mL]	MIC [5, 10] [µg/mL]	MIC [5, 11]	also measured
COc1cccc(OC)c1C(=O)N[C@@H]1C(=O)N2[C@@H]1SC(C)(C)[C@@H]2C(=O)O [Methicillin, methicillin]	no effect	>128	–	–	–	–	–	–	–	–	–	Minimum antibiotic concentration for bactericidal (>3 log10) activity on murine nasopharyngeal colonization ([1]; NRS70, mice, within 12 hours, antibiotic alone): >100 μg/dose; MRSA colonization, nasopharyngeal tissue ([1]; mice colonized with NRS 70 for 24 h, one dose, 100 μg methicillin alone or with 100 μg ALAFAC, 12 hours): failed to significantly reduce; Minimum antibiotic concentration for bactericidal (>3 log10) activity, planktonic ([2]; S. aureus 10307570): >128 μg/ml; Minimum antibiotic concentration for bactericidal (>3 log10) activity, planktonic ([2]; S. aureus 11090306): 64 μg/ml; Minimum antibiotic concentration for bactericidal (>3 log10) activity, planktonic ([2]; S. aureus NRS1): >128 μg/ml; Minimum antibiotic concentration for bactericidal (>3 log10) activity, planktonic ([2]; S. aureus NRS70): 128 μg/ml; Minimum antibiotic concentration for bactericidal (>3 log10) activity, planktonic ([2]; S. aureus NRS71): >128 μg/ml; Minimum antibiotic concentration for bactericidal (>3 log10) activity, planktonic ([2]; S. aureus NRS100): >128 μg/ml; Minimum antibiotic concentration for bactericidal (>3 log10) activity, planktonic ([2]; S. aureus NRS123): >128 μg/ml
CC1(C)S[C@@H]2[C@H](NC(=O)Cc3ccccc3)C(=O)N2[C@H]1C(=O)O [Penicillin, penicillin G]	–	–	not bactericidal	>5000	almost complete resistance	>50	>50	–	–	–	–	Minimum antibiotic concentration for bactericidal (>3 log10) activity on biofilms ([3]; S. pneumoniae SP670 biofilm): >5000 μg/ml; MIC ([4]; M. catarrhalis BC8 (MCBC8), listed as penicillin): exceeded 50 μg/ml; MIC ([4]; Moraxella catarrhalis, M. catarrhalis 7169 (MC7169), read-out: MIC): > 50 µg/mL; MIC ([5]; Streptococcus pneumoniae, S. pneumoniae D39, agent alone, read-out: MIC): 0.01 µg/mL; MIC ([5]; Streptococcus pneumoniae, S. pneumoniae EF3030, agent alone, read-out: MIC): 0.01 µg/mL; MIC ([5]; Streptococcus pneumoniae, S. pneumoniae SP670 (penicillin-resistant), agent alone, read-out: MIC): 4 µg/mL
gentamicin	–	50	–	>600	–	25	25	1.1 log	16	16	16 µg/mL	Biofilm bactericidal activity ([3]; EF3030 48 h biofilm, gentamicin 200 or 500 μg/mL alone or with 100 μg/mL ALAFAC, 3 hours): Neither concentration of gentamicin was bactericidal; Minimum antibiotic concentration for bactericidal (>3 log10) activity on biofilms ([3]; S. pneumoniae EF3030 biofilm): >600 μg/ml
ALAFAC: non-covalent complex of alpha-lactalbumin and fatty acid (oleic acid); labeled HAMLET or HL in drawings and tables (protein, UniProt P00709 20-142, looked up, complexed with oleic acid) Alpha-lactalbumin: KQFTKCELSQLLKDIDGYGGIALPELICTMFHTSGYDTQAIVENNESTEYGLFQISNKLWCKSSQVPQSRNICDISCDKFLDDDITDDIMCAKKILDIKGIDYWLAHKALCTEKLEQWLCEKL	no effect	–	not bactericidal	–	almost complete resistance	–	–	no bactericidal activity	20	20	≈ 20 μg/ml	MIC ([5]; S. pneumoniae JY53 (erythromycin-resistant), agent alone): 20 µg/mL; MIC ([5]; S. pneumoniae SP670 (penicillin-resistant), agent alone): 20 µg/mL
